Test results published in ChEMBL document CHEMBL5370614, “Antimalarial Lanostane Dimers from Artificially Cultivated Fruiting Bodies of Ganoderma weberianum” (J Nat Prod, 2023).
pIC50: −log10 of the molar value.

How the values were obtained:
Plasmodium falciparum = test: Antimalarial activity against multi-drug resistant Plasmodium falciparum K1 infected in human erythrocytes assessed as parasite growth inhibition incubated for 24 hrs by [G-3H]hypoxanthine uptake assay; assay type: functional, organism-based; conditions: K1, Erythrocyte
[1] = Cytotoxicity against African green monkey Vero cells assessed as cell growth inhibition by GFP fluorescence based assay; assay type: toxicity; conditions: African green monkey (Chlorocebus sabaeus)

## C[C@H](CC[C@@H](O)[C@@](C)(O)CO)[C@H]1CC[C@@]2(C)C3=CC[C@H]4C(C)(C)C(=O)CC[C@]4(C)C3=CC[C@]12C
Plasmodium falciparum
  pIC50: < 4.68
[1]
  pIC50: < 3.97

## C[C@H](CC(=O)C[C@H](C)C(=O)O[C@@H](CC[C@@H](C)[C@H]1C[C@H](O)[C@@]2(C)C3=C(CC[C@]12C)[C@@]1(C)CCC(=O)C(C)(C)[C@@H]1CC3)[C@](C)(O)CO)[C@H]1C[C@@H](O)[C@@]2(C)C3=C(C(=O)C[C@]12C)[C@@]1(C)CC[C@@H](O)C(C)(C)[C@@H]1CC3=O
Plasmodium falciparum
  pIC50: 6.64
[1]
  pIC50: 4.89

## C[C@H](CC[C@H](O)[C@](C)(O)COC(=O)[C@@H](C)CC(=O)C[C@@H](C)[C@H]1C[C@@H](O)[C@@]2(C)C3=C(C(=O)C[C@]12C)[C@@]1(C)CC[C@@H](O)C(C)(C)[C@@H]1CC3=O)[C@H]1CC[C@@]2(C)C3=CC[C@H]4C(C)(C)C(=O)CC[C@]4(C)C3=CC[C@]12C
Plasmodium falciparum
  pIC50: 5.48
[1]
  pIC50: 4.62

## C.C[C@H](CC[C@@H](OC(=O)[C@@H](C)CC(=O)C[C@@H](C)[C@H]1C[C@@H](O)[C@@]2(C)C3=C(C(=O)C[C@]12C)[C@@]1(C)CC[C@@H](O)C(C)(C)[C@@H]1CC3=O)[C@@](C)(O)CO)[C@H]1CC[C@@]2(C)C3=CC[C@H]4C(C)(C)C(=O)CC[C@]4(C)C3=CC[C@]12C
Plasmodium falciparum
  pIC50: 5.89
[1]
  pIC50: 5.04

## C[C@H](CC[C@H](O)[C@](C)(O)CO)[C@H]1CC[C@@]2(C)C3=CC[C@H]4C(C)(C)C(=O)CC[C@]4(C)C3=CC[C@]12C [GANODERMANONTRIOL]
Plasmodium falciparum
  pIC50: < 4.68
[1]
  pIC50: < 3.97

## C[C@H](CC[C@H](O)[C@](C)(O)COC(=O)[C@@H](C)CC(=O)C[C@@H](C)[C@H]1C[C@@H](O)[C@@]2(C)C3=C(C(=O)C[C@]12C)[C@@]1(C)CCC(=O)C(C)(C)[C@@H]1CC3=O)[C@H]1CC[C@@]2(C)C3=CC[C@H]4C(C)(C)C(=O)CC[C@]4(C)C3=CC[C@]12C
Plasmodium falciparum
  pIC50: 6.11
[1]
  pIC50: < 4.28

## C[C@H](CC(=O)C[C@H](C)C(=O)O)[C@H]1C[C@H](O)[C@@]2(C)C3=C(C(=O)C[C@]12C)[C@@]1(C)CCC(=O)C(C)(C)[C@@H]1CC3
Plasmodium falciparum
  pIC50: < 4.70
[1]
  pIC50: < 4.00

## C[C@H](CC(=O)C[C@H](C)C(=O)O[C@@H](CC[C@@H](C)[C@H]1C[C@H](O)[C@@]2(C)C3=C(CC[C@]12C)[C@@]1(C)CCC(=O)C(C)(C)[C@@H]1CC3)[C@](C)(O)CO)[C@H]1C[C@@H](O)[C@@]2(C)C3=C(C(=O)C[C@]12C)[C@@]1(C)CCC(=O)C(C)(C)[C@@H]1CC3=O
Plasmodium falciparum
  pIC50: 7.24
[1]
  pIC50: 5.09

## C[C@H](CC(=O)C[C@H](C)C(=O)OC[C@@](C)(O)[C@@H](O)CC[C@@H](C)[C@H]1C[C@H](O)[C@@]2(C)C3=C(CC[C@]12C)[C@@]1(C)CCC(=O)C(C)(C)[C@@H]1CC3)[C@H]1C[C@@H](O)[C@@]2(C)C3=C(C(=O)C[C@]12C)[C@@]1(C)CCC(=O)C(C)(C)[C@@H]1CC3=O
Plasmodium falciparum
  pIC50: 7.46
[1]
  pIC50: 4.72

## C[C@H](CC(=O)C[C@H](C)C(=O)O)[C@H]1C[C@H](O)[C@@]2(C)C3=C(C(=O)C[C@]12C)[C@@]1(C)CC[C@@H](O)C(C)(C)[C@@H]1CC3=O
Plasmodium falciparum
  pIC50: < 4.72
[1]
  pIC50: < 4.01

## Cc1c2ccncc2c(C)c2c1[nH]c1ccccc12 [ELLIPTECINE]
[1]
  pIC50: 5.54

## C[C@H](CC(=O)C[C@@H](C)[C@H]1C[C@@H](O)[C@@]2(C)C3=C(C(=O)C[C@]12C)[C@@]1(C)CCC(=O)C(C)(C)[C@@H]1CC3=O)C(=O)O[C@H](CC[C@@H](C)[C@H]1CC[C@@]2(C)C3=CC[C@H]4C(C)(C)C(=O)CC[C@]4(C)C3=CC[C@]12C)[C@@](C)(O)CO
Plasmodium falciparum
  pIC50: 5.63
[1]
  pIC50: 5.05

## C[C@H]1[C@@H](O)O[C@@H]2O[C@@]3(C)CC[C@H]4[C@H](C)CC[C@@H]1[C@@]24OO3 [ARTENIMOL]
Plasmodium falciparum
  pIC50: 8.70

## C[C@H](CC[C@@H](OC(=O)[C@@H](C)CC(=O)C[C@@H](C)[C@H]1C[C@@H](O)[C@@]2(C)C3=C(C(=O)C[C@]12C)[C@@]1(C)CC[C@@H](O)C(C)(C)[C@@H]1CC3=O)[C@@](C)(O)CO)[C@H]1CC[C@@]2(C)C3=C(CC[C@]12C)[C@@]1(C)CCC(=O)C(C)(C)[C@@H]1C[C@H]3O
Plasmodium falciparum
  pIC50: 6.17
[1]
  pIC50: 4.77

## C[C@H](CC(=O)C[C@H](C)C(=O)O)[C@H]1C[C@H](O)[C@@]2(C)C3=C(C(=O)C[C@]12C)[C@@]1(C)CCC(=O)C(C)(C)[C@@H]1CC3=O
Plasmodium falciparum
  pIC50: < 4.72
[1]
  pIC50: < 4.01

## C[C@H](CC(=O)C[C@H](C)C(=O)O)[C@H]1C[C@H](O)[C@@]2(C)C3=C(C(=O)C[C@]12C)[C@@]1(C)CC[C@@H](O)C(C)(C)[C@@H]1CC3
Plasmodium falciparum
  pIC50: < 4.70
[1]
  pIC50: < 4.00

## C[C@H](CC(=O)C[C@H](C)C(=O)O)[C@H]1C[C@H](O)[C@@]2(C)C3=C(C(=O)C[C@]12C)[C@@]1(C)CCC(=O)C(C)(C)[C@@H]1C[C@H]3O
Plasmodium falciparum
  pIC50: 4.72
[1]
  pIC50: < 4.01

## C[C@H](CC[C@@H](O)[C@@](C)(O)COC(=O)[C@@H](C)CC(=O)C[C@@H](C)[C@H]1C[C@@H](O)[C@@]2(C)C3=C(C(=O)C[C@]12C)[C@@]1(C)CCC(=O)C(C)(C)[C@@H]1CC3=O)[C@H]1CC[C@@]2(C)C3=CC[C@H]4C(C)(C)C(=O)CC[C@]4(C)C3=CC[C@]12C
Plasmodium falciparum
  pIC50: 5.96
[1]
  pIC50: < 4.28

## C[C@H](CC[C@H](OC(=O)[C@@H](C)CC(=O)C[C@@H](C)[C@H]1C[C@@H](O)[C@@]2(C)C3=C(C(=O)C[C@]12C)[C@@]1(C)CC[C@@H](O)C(C)(C)[C@@H]1CC3=O)[C@](C)(O)CO)[C@H]1CC[C@@]2(C)C3=C(CC[C@]12C)[C@@]1(C)CCC(=O)C(C)(C)[C@@H]1C[C@H]3O
Plasmodium falciparum
  pIC50: 6.41
[1]
  pIC50: 5.64
